The values below come from ChEMBL document CHEMBL5137130, “Highly N-Methylated Peptides from the Antarctic Sponge Inflatella coelosphaeroides Are Active against Plasmodium falciparum” (J Nat Prod, 2022).

Where a SMILES comes first, the peptide text is derived from it. [ ]: non-standard residue; d: D form. The star is where a group is joined. Phe(Nα-CONH2) = NC(=O)N[C@@H](Cc1ccccc1)C(=O)*; NMeI = CC[C@H](C)[C@H](NC)C(=O)O; X1 = CN(/C=C\c1c[nH]c2ccccc12)*; NMeL = CN[C@@H](CC(C)C)C(=O)O; NMeV = CN[C@H](C(=O)O)C(C)C; NMeA = CN[C@@H](C)C(=O)O; For = O=C* A value given as a limit tells only on which side of the number the result lay.

Data set [1] has as its system Plasmodium falciparum. Nature of the data set: Antimalarial activity against blood stage chloroquine-sensitive Plasmodium falciparum NF54 assessed as reduction in parasite growth incubated for 72 hrs by SYBR Green dye based fluorescence assay. The data set is classed as functional, organism-based. The conditions noted are these: NF54, 72 h.
In data set [2] the test system is Plasmodium falciparum. Nature of the data set: Antimalarial activity against blood stage chloroquine-sensitive Plasmodium falciparum 3D7 assessed as reduction in parasite growth incubated for 72 hrs by SYBR Green dye based fluorescence assay. It is filed as functional, organism-based. The conditions noted are these: 3D7, 72 h.
The subject of data set [3] is Plasmodium falciparum. Nature of the data set: Antimalarial activity against blood stage chloroquine-resistant Plasmodium falciparum Dd2 assessed as reduction in parasite growth incubated for 72 hrs by SYBR Green dye based fluorescence assay. It is filed as functional, organism-based. The conditions noted are these: Dd2, 72 h.
A short description of data set [4]: Cytotoxicity against mouse J774 cells assessed as reduction in cell viability incubated for 68 hrs by CellTiter96 Aqueous One Solution Cell Proliferation Assay. It is filed as toxicity, cell-based.

What is called IC50 is the midpoint of a concentration-inhibition curve.

As for `CC[C@H](C)[C@@H](C(=O)N(C)[C@@H](C)C(=O)N(C)[C@H](C(N)=O)C(C)C)N(C)C(=O)[C@H]([C@@H](C)CC)N(C)C(=O)[C@H](C)N(C)C(=O)[C@H](C(C)C)N(C)C(=O)[C@H](C)N(C)C(=O)[C@@H](NC(C)=O)C(C)C` (Ac-V[NMeA][NMeV][NMeA][NMeI][NMeI][NMeA][NMeV]-NH2), the results for the IC50 in the data set on Plasmodium falciparum [1], with Plasmodium falciparum [2] and in the data set on Plasmodium falciparum [3] were above 10 µM, above 10 µM and above 10000 nM, respectively. Moreover, in data set [4], the IC50 at 68 h is above 20 µM.

Regarding `CC[C@H](C)[C@@H](C(=O)NC)N(C)C(=O)[C@H](C)N(C)C(=O)[C@H](C(C)C)N(C)C(=O)[C@H](C(C)C)N(C)C(=O)[C@H](C)N(C)C(=O)[C@H](C(C)C)N(C)C(=O)[C@H](C(C)C)N(C)C(=O)[C@H](C)N(C)C(=O)[C@H](C)NC(C)=O` (Ac-A[NMeA][NMeV][NMeV][NMeA][NMeV][NMeV][NMeA][NMeI]-NHMe), the IC50 with Plasmodium falciparum [1] was above 10 µM; in the data set on Plasmodium falciparum [2] it was above 10 µM; in the data set with Plasmodium falciparum [3], above 10000 nM. Also, the IC50 at 68 h in data set [4] is above 20 µM.

For the molecule `CNC(=O)[C@H](C(C)C)N(C)C(=O)[C@H](C(C)C)N(C)C(=O)[C@H](C(C)C)N(C)C(=O)[C@H](C)N(C)C(=O)[C@H](C)N(C)C(=O)[C@H](CC(C)C)N(C)C(=O)[C@H](C(C)C)N(C)C(=O)[C@H](Cc1ccccc1)NC=O` (For-F[NMeV][NMeL][NMeA][NMeA][NMeV][NMeV][NMeV]-NHMe), the IC50 with Plasmodium falciparum [1] was found to be 3.73 µM; with Plasmodium falciparum [2], 2.52 µM; with Plasmodium falciparum [3] it was 1070 nM. Besides, the half-inhibitory concentration (IC50) at 68 h in data set [4] was above 20 µM.

In the case of `CNC(=O)[C@H](C(C)C)N(C)C(=O)[C@H](C(C)C)N(C)C(=O)[C@H](C(C)C)N(C)C(=O)[C@H](C)N(C)C(=O)[C@H](C)N(C)C(=O)[C@H](CC(C)C)N(C)C(=O)[C@H](C(C)C)N(C)C(=O)[C@H](Cc1ccccc1)NC(N)=O` ({Phe(Nα-CONH2)}-[NMeV][NMeL][NMeA][NMeA][NMeV][NMeV][NMeV]-NHMe), the half-maximal inhibitory concentration (IC50) is 3.05 µM with Plasmodium falciparum [1], above 10 µM with Plasmodium falciparum [2] and 2020 nM in the data set on Plasmodium falciparum [3]. For the same molecule, the IC50 at 68 h in data set [4] is above 20 µM.

For `CC[C@H](C)[C@@H](C(N)=O)N(C)C(=O)[C@H](C(C)C)N(C)C(=O)[C@H](CC(C)C)N(C)C(=O)[C@H](Cc1ccccc1)N(C)C(=O)[C@H](Cc1ccccc1)NC=O`, the results for the IC50 in the data set with Plasmodium falciparum [1], with Plasmodium falciparum [2] and with Plasmodium falciparum [3] were 2.61 µM, 2.1 µM and 1720 nM, respectively. Further, in data set [4], the IC50 at 68 h was above 20 µM.

With `CC[C@H](C)[C@@H](C(=O)N(C)[C@H](C(=O)NC)[C@@H](C)CC)N(C)C(=O)[C@H](C(C)C)N(C)C(=O)[C@H](C)N(C)C(=O)[C@H](C(C)C)N(C)C(=O)[C@H](C(C)C)N(C)C(=O)[C@@H](NC=O)C(C)C` (For-V[NMeV][NMeV][NMeA][NMeV][NMeI][NMeI]-NHMe), the concentration for half-maximal inhibition (IC50) in the data set with Plasmodium falciparum [1] was above 10 µM; with Plasmodium falciparum [2] it was above 10 µM; in the data set with Plasmodium falciparum [3], 4370 nM. Besides, in data set [4], the IC50 at 68 h is above 20 µM.

For `CC[C@H](C)[C@@H](C(=O)N(C)/C=C\c1c[nH]c2ccccc12)N(C)C(=O)[C@H](C(C)C)N(C)C(=O)[C@H](C(C)C)N(C)C(=O)[C@H](CC(C)C)N(C)C(=O)[C@@H]1CCCN1C(=O)[C@H](Cc1ccccc1)NC(=O)[C@H](Cc1ccccc1)NC(C)=O` (Ac-FFP[NMeL][NMeV][NMeV][NMeI]-X1), the IC50 came out at 3.93 µM in the data set with Plasmodium falciparum [1], 8.65 µM with Plasmodium falciparum [2] and 3300 nM in the data set with Plasmodium falciparum [3]. In data set [4], the IC50 at 68 h is above 20 µM.
